Measurements as given in patent US20230017045A1, “PYRIDINE AND PYRIMIDINE CARBOXYLATE HERBICIDES AND METHODS OF USE THEREOF” (Dow AgroSciences LLC, priority 2017, published 2023).

tested on: not given; experiment: not given; conditions: not given

melting point | SMILES
84 to 86 °C | COC(=O)c1nc(-c2ccc(C(F)(F)F)nc2F)c(F)cc1Cl [F354, methyl 5-chloro-2′,3-difluoro-6′-(trifluoromethyl)-[2,3′-bipyridine]-6-carboxylate]
85 to 86 °C | COC(=O)c1nc(-c2ccc(C(F)(F)F)cc2Cl)c(Cl)cc1Cl [F103, Methyl 3,5-dichloro-6-(2-chloro-4-(trifluoromethyl)phenyl)picolinate]

tested on: test plant species; experiment: Post-emergent herbicidal activity test (greenhouse, foliar spray, visual growth reduction); format: in vivo; conditions: post-emergence, 336 h, ALOMY: blackgrass (Alopecurus myosuroides), 140 g ai/ha, 14 days after application, read-out: Visual Growth Reduction (%) 14 Days After Application, ALOMY
In short: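 Visual scoring 14 d after treatment (0 = no injury, 100 = complete control) against nontreated and solvent-blank plants gave percent growth reduction. Foliar application used a track sprayer delivering 187 L/ha to seedlings at first or second true leaf stage, grown at 23–29 °C day, ~15 h photoperiod.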

SMILES | pest or weed control at 140 g/ha
COC(=O)c1nc(-c2ccc(C(F)(F)F)cc2Cl)c(Cl)cc1Cl [F103, Methyl 3,5-dichloro-6-(2-chloro-4-(trifluoromethyl)phenyl)picolinate] | 0 to 29%

same assay, conditions: post-emergence, 336 h, AMARE: redroot pigweed (Amaranthus retroflexus), 140 g ai/ha, 14 days after application, read-out: Visual Growth Reduction (%) 14 Days After Application, AMARE

SMILES | pest or weed control at 140 g/ha
COC(=O)c1nc(-c2ccc(C(F)(F)F)cc2Cl)c(Cl)cc1Cl [F103, Methyl 3,5-dichloro-6-(2-chloro-4-(trifluoromethyl)phenyl)picolinate] | 60 to 74%

same assay, conditions: post-emergence, 336 h, AVEFA: wild oat (Avena fatua), 140 g ai/ha, 14 days after application, read-out: Visual Growth Reduction (%) 14 Days After Application, AVEFA

SMILES | pest or weed control at 140 g/ha
COC(=O)c1nc(-c2ccc(C(F)(F)F)cc2Cl)c(Cl)cc1Cl [F103, Methyl 3,5-dichloro-6-(2-chloro-4-(trifluoromethyl)phenyl)picolinate] | 0 to 29%

same assay, conditions: post-emergence, 336 h, CHEAL: lambsquarters (Chenopodium album), 140 g ai/ha, 14 days after application, read-out: Visual Growth Reduction (%) 14 Days After Application, CHEAL

SMILES | pest or weed control at 140 g/ha
COC(=O)c1nc(-c2ccc(C(F)(F)F)cc2Cl)c(Cl)cc1Cl [F103, Methyl 3,5-dichloro-6-(2-chloro-4-(trifluoromethyl)phenyl)picolinate] | 75 to 84%

same assay, conditions: post-emergence, 336 h, CIRAR: canada thistle (Cirsium arvense), 140 g ai/ha, 14 days after application, read-out: Visual Growth Reduction (%) 14 Days After Application, CIRAR

SMILES | pest or weed control at 140 g/ha
COC(=O)c1nc(-c2ccc(C(F)(F)F)cc2Cl)c(Cl)cc1Cl [F103, Methyl 3,5-dichloro-6-(2-chloro-4-(trifluoromethyl)phenyl)picolinate] | 85 to 94%

same assay, conditions: post-emergence, 336 h, CYPES: yellow nutsedge (Cyperus esculentus), 140 g ai/ha, 14 days after application, read-out: Visual Growth Reduction (%) 14 Days After Application, CYPES

SMILES | pest or weed control at 140 g/ha
COC(=O)c1nc(-c2ccc(C(F)(F)F)cc2Cl)c(Cl)cc1Cl [F103, Methyl 3,5-dichloro-6-(2-chloro-4-(trifluoromethyl)phenyl)picolinate] | 0 to 29%

same assay, conditions: post-emergence, 336 h, DIGSA: crabgrass (Digitaria sanguinalis), 140 g ai/ha, 14 days after application, read-out: Visual Growth Reduction (%) 14 Days After Application, DIGSA

SMILES | pest or weed control at 140 g/ha
COC(=O)c1nc(-c2ccc(C(F)(F)F)cc2Cl)c(Cl)cc1Cl [F103, Methyl 3,5-dichloro-6-(2-chloro-4-(trifluoromethyl)phenyl)picolinate] | 30 to 44%

same assay, conditions: post-emergence, 336 h, ECHCG: barnyardgrass (Echinochloa crus-galli), 140 g ai/ha, 14 days after application, read-out: Visual Growth Reduction (%) 14 Days After Application, ECHCG

SMILES | pest or weed control at 140 g/ha
COC(=O)c1nc(-c2ccc(C(F)(F)F)nc2F)c(F)cc1Cl [F354, methyl 5-chloro-2′,3-difluoro-6′-(trifluoromethyl)-[2,3′-bipyridine]-6-carboxylate] | 75 to 84%
COC(=O)c1nc(-c2ccc(C(F)(F)F)cc2Cl)c(Cl)cc1Cl [F103, Methyl 3,5-dichloro-6-(2-chloro-4-(trifluoromethyl)phenyl)picolinate] | 0 to 29%

same assay, conditions: post-emergence, 336 h, IPOHE: ivy-leaf morning glory (Ipomoea hederacea), 140 g ai/ha, 14 days after application, read-out: Visual Growth Reduction (%) 14 Days After Application, IPOHE

SMILES | pest or weed control at 140 g/ha
COC(=O)c1nc(-c2ccc(C(F)(F)F)nc2F)c(F)cc1Cl [F354, methyl 5-chloro-2′,3-difluoro-6′-(trifluoromethyl)-[2,3′-bipyridine]-6-carboxylate] | 95 to 100%
COC(=O)c1nc(-c2ccc(C(F)(F)F)cc2Cl)c(Cl)cc1Cl [F103, Methyl 3,5-dichloro-6-(2-chloro-4-(trifluoromethyl)phenyl)picolinate] | 95 to 100%

same assay, conditions: post-emergence, 336 h, KCHSC: kochia (Bassia scoparia), 140 g ai/ha, 14 days after application, read-out: Visual Growth Reduction (%) 14 Days After Application, KCHSC

SMILES | pest or weed control at 140 g/ha
COC(=O)c1nc(-c2ccc(C(F)(F)F)nc2F)c(F)cc1Cl [F354, methyl 5-chloro-2′,3-difluoro-6′-(trifluoromethyl)-[2,3′-bipyridine]-6-carboxylate] | 60 to 74%
COC(=O)c1nc(-c2ccc(C(F)(F)F)cc2Cl)c(Cl)cc1Cl [F103, Methyl 3,5-dichloro-6-(2-chloro-4-(trifluoromethyl)phenyl)picolinate] | 75 to 84%

same assay, conditions: post-emergence, 336 h, ORYSA: rice (Oryza sativa), 140 g ai/ha, 14 days after application, read-out: Visual Growth Reduction (%) 14 Days After Application, ORYSA

SMILES | pest or weed control at 140 g/ha
COC(=O)c1nc(-c2ccc(C(F)(F)F)nc2F)c(F)cc1Cl [F354, methyl 5-chloro-2′,3-difluoro-6′-(trifluoromethyl)-[2,3′-bipyridine]-6-carboxylate] | 0 to 29%
COC(=O)c1nc(-c2ccc(C(F)(F)F)cc2Cl)c(Cl)cc1Cl [F103, Methyl 3,5-dichloro-6-(2-chloro-4-(trifluoromethyl)phenyl)picolinate] | 0 to 29%

same assay, conditions: post-emergence, 336 h, SETFA: giant foxtail (Setaria faberi), 140 g ai/ha, 14 days after application, read-out: Visual Growth Reduction (%) 14 Days After Application, SETFA

SMILES | pest or weed control at 140 g/ha
COC(=O)c1nc(-c2ccc(C(F)(F)F)nc2F)c(F)cc1Cl [F354, methyl 5-chloro-2′,3-difluoro-6′-(trifluoromethyl)-[2,3′-bipyridine]-6-carboxylate] | 75 to 84%
COC(=O)c1nc(-c2ccc(C(F)(F)F)cc2Cl)c(Cl)cc1Cl [F103, Methyl 3,5-dichloro-6-(2-chloro-4-(trifluoromethyl)phenyl)picolinate] | 60 to 74%

same assay, conditions: post-emergence, 336 h, SORVU: grain sorghum (Sorghum vulgare), 140 g ai/ha, 14 days after application, read-out: Visual Growth Reduction (%) 14 Days After Application, SORVU

SMILES | pest or weed control at 140 g/ha
COC(=O)c1nc(-c2ccc(C(F)(F)F)nc2F)c(F)cc1Cl [F354, methyl 5-chloro-2′,3-difluoro-6′-(trifluoromethyl)-[2,3′-bipyridine]-6-carboxylate] | 85 to 94%
COC(=O)c1nc(-c2ccc(C(F)(F)F)cc2Cl)c(Cl)cc1Cl [F103, Methyl 3,5-dichloro-6-(2-chloro-4-(trifluoromethyl)phenyl)picolinate] | 75 to 84%

same assay, conditions: post-emergence, 336 h, STEME: common chickweed (Stellaria media), 140 g ai/ha, 14 days after application, read-out: Visual Growth Reduction (%) 14 Days After Application, STEME

SMILES | pest or weed control at 140 g/ha
COC(=O)c1nc(-c2ccc(C(F)(F)F)nc2F)c(F)cc1Cl [F354, methyl 5-chloro-2′,3-difluoro-6′-(trifluoromethyl)-[2,3′-bipyridine]-6-carboxylate] | 0 to 29%
COC(=O)c1nc(-c2ccc(C(F)(F)F)cc2Cl)c(Cl)cc1Cl [F103, Methyl 3,5-dichloro-6-(2-chloro-4-(trifluoromethyl)phenyl)picolinate] | 0 to 29%

same assay, conditions: post-emergence, 336 h, TRZAS: wheat, spring (Triticum aestivum), 140 g ai/ha, 14 days after application, read-out: Visual Growth Reduction (%) 14 Days After Application, TRZAS

SMILES | pest or weed control at 140 g/ha
COC(=O)c1nc(-c2ccc(C(F)(F)F)nc2F)c(F)cc1Cl [F354, methyl 5-chloro-2′,3-difluoro-6′-(trifluoromethyl)-[2,3′-bipyridine]-6-carboxylate] | 60 to 74%
COC(=O)c1nc(-c2ccc(C(F)(F)F)cc2Cl)c(Cl)cc1Cl [F103, Methyl 3,5-dichloro-6-(2-chloro-4-(trifluoromethyl)phenyl)picolinate] | 0 to 29%

same assay, conditions: post-emergence, 336 h, blackgrass (Alopecurus myosuroides), 14 Days After Application, 140 g ai/ha, read-out: Visual Growth Reduction (%) ALOMY

SMILES | pest or weed control at 140 g/ha
COC(=O)c1nc(-c2ccc(C(F)(F)F)nc2F)c(F)cc1Cl [F354, methyl 5-chloro-2′,3-difluoro-6′-(trifluoromethyl)-[2,3′-bipyridine]-6-carboxylate] | 0 to 29%

same assay, conditions: post-emergence, 336 h, canada thistle (Cirsium arvense), 14 Days After Application, 140 g ai/ha, read-out: Visual Growth Reduction (%) CIRAR

SMILES | pest or weed control at 140 g/ha
COC(=O)c1nc(-c2ccc(C(F)(F)F)nc2F)c(F)cc1Cl [F354, methyl 5-chloro-2′,3-difluoro-6′-(trifluoromethyl)-[2,3′-bipyridine]-6-carboxylate] | 75 to 84%

same assay, conditions: post-emergence, 336 h, crabgrass (Digitaria sanguinalis), 14 Days After Application, 140 g ai/ha, read-out: Visual Growth Reduction (%) DIGSA

SMILES | pest or weed control at 140 g/ha
COC(=O)c1nc(-c2ccc(C(F)(F)F)nc2F)c(F)cc1Cl [F354, methyl 5-chloro-2′,3-difluoro-6′-(trifluoromethyl)-[2,3′-bipyridine]-6-carboxylate] | 85 to 94%

same assay, conditions: post-emergence, 336 h, lambsquarters (Chenopodium album), 14 Days After Application, 140 g ai/ha, read-out: Visual Growth Reduction (%) CHEAL

SMILES | pest or weed control at 140 g/ha
COC(=O)c1nc(-c2ccc(C(F)(F)F)nc2F)c(F)cc1Cl [F354, methyl 5-chloro-2′,3-difluoro-6′-(trifluoromethyl)-[2,3′-bipyridine]-6-carboxylate] | 75 to 84%

same assay, conditions: post-emergence, 336 h, redroot pigweed (Amaranthus retroflexus), 14 Days After Application, 140 g ai/ha, read-out: Visual Growth Reduction (%) AMARE

SMILES | pest or weed control at 140 g/ha
COC(=O)c1nc(-c2ccc(C(F)(F)F)nc2F)c(F)cc1Cl [F354, methyl 5-chloro-2′,3-difluoro-6′-(trifluoromethyl)-[2,3′-bipyridine]-6-carboxylate] | 60 to 74%

same assay, conditions: post-emergence, 336 h, wild oat (Avena fatua), 14 Days After Application, 140 g ai/ha, read-out: Visual Growth Reduction (%) AVEFA

SMILES | pest or weed control at 140 g/ha
COC(=O)c1nc(-c2ccc(C(F)(F)F)nc2F)c(F)cc1Cl [F354, methyl 5-chloro-2′,3-difluoro-6′-(trifluoromethyl)-[2,3′-bipyridine]-6-carboxylate] | 30 to 44%

same assay, conditions: post-emergence, 336 h, yellow nutsedge (Cyperus esculentus), 14 Days After Application, 140 g ai/ha, read-out: Visual Growth Reduction (%) CYPES

SMILES | pest or weed control at 140 g/ha
COC(=O)c1nc(-c2ccc(C(F)(F)F)nc2F)c(F)cc1Cl [F354, methyl 5-chloro-2′,3-difluoro-6′-(trifluoromethyl)-[2,3′-bipyridine]-6-carboxylate] | 0 to 29%
